In experiment [1] the test system is CCR-1, -3, -4, and -5 receptors on THP-1 cells. In words: Competitive inhibition of 125I-RANTES binding to THP-1 cells. To be noted: for % Inhibition (4 ug/ml) of 125I-RANTES binding: 4 ug/ml compound. The procedure:
The binding studies were conducted using I^125 labeled RANTES as competitor and THP-1 cell lines.

In experiment [2] the test system is murine Experimental Allergic Encephalomyelitis (EAE). In words: EAE mouse model of multiple sclerosis, clinical severity grading. Type of experiment: in vivo. To be noted: 5, 20 and 40 mg/kg/day for 19 days, SJL/J mice, compared to control, FIG. 3. From the text: Experimental autoimmune encephalomyelitis (EAE) is a CD4^+ Th1-mediated inflammatory demyelinating disease of the central nervous system (CNS) that serves as a model for multiple sclerosis and other autoimmune diseases. It has previously been disclosed that RANTES regulates acute and relapsing autoimmune encephalomyelitis, and that RANTES production in the central nervous system is correlated with relapsing EAE development. In this example, the EAE mouse model (SJL/J mice) for MS is used, in which the disease is induced with Bordetella pertussis toxin (Claude C. A. et. al., (1975) Journal of Immunology 114(5): 1537-1540 and Hosseimi, H. et. al., (2000) Neurology 54 (7): A 166, An abstract presented in April 2000 on “Inhibition of proteosome prevents clinical signs in an experimental model of Multiple Sclerosis”).
Data for FIG. 3 was collected in an experiment involving five groups of 10 mice each, as follows: group I, normal control (no drug, no disease); group II, EAE control (MBP but no drug); group III, drug at 5 mg/kg body weight; group IV, drug at 20 mg/kg body weight; group V, drug at 40 mg/kg body weight. Three different concentrations of neoabietic acid were given to animals for 19 days: 5, 20, and 40 mg/kg/day in a volume of 100 ul Cremophore EL (Sigma). […]

Experiment [3] deals with RANTES-induced [Ca2+]i mobilization in THP-1 cells. As to the kind of experiment: Inhibition of RANTES-induced [Ca2+]i mobilization in THP-1 cells. Type of experiment: cell-based. The procedure:
A rapid, transient rise in the free cytosolic Ca^2+ concentration ([Ca^2+]i) is one of the events in neutrophil activation and is assumed to be involved in many of the subsequent cellular reactions. Both Ca^2+ release from intracellular stores and Ca^2+ influx from the extracellular space contribute to the rise in [Ca^2+]i. […] Fura-2,AM loaded THP-1 cells were incubated with CTCM189 for 60 min prior to induction of [Ca^2+]i mobilization by 10 nM RANTES.

With `C=C[C@]1(C)C=C2CC[C@@H]3[C@](C)(CCC[C@@]3(C)C(=O)O)[C@H]2CC1` [B, Sandaraco-pimaric acid], the “% Inhibition (4 ug/ml) of 125I-RANTES binding” value (“% Inhibition (4 ug/ml)” for short) in experiment [1] amounted to 36%.

For the molecule `C=C[C@@]1(C)C=C2CC[C@@H]3[C@](C)(CCC[C@@]3(C)C(=O)O)[C@H]2CC1.N` [C, Ammonium Pimarate], the “% Inhibition (4 ug/ml)” value in experiment [1] turned out to be 48%.

`CC(C)=C1C=C2CC[C@@H]3[C@](C)(CCC[C@@]3(C)C(=O)O)[C@H]2CC1` [Compound 1, 8(14), 13(15)-abietadien-18-oic-acid]: in experiment [2], the “Effect on clinical scores in EAE” value is “beneficial effect on the clinical scores”. The IC50 (as a rule, the concentration that inhibits the measured activity by half) in experiment [3] (Homo sapiens, Fura-2,AM loaded THP-1 cells, 60 min preincubation, 10 nM RANTES) is 27.2 nM; in experiment [1] (I125 labeled RANTES, THP-1 cells, data of FIG. 1, read-out: IC50, inhibition of binding of RANTES to THP-1 cells expressing CCR-1, -3, -4, and -5) it was 253 nM. Further, the “Inhibition of RANTES-induced [Ca2+]i mobilization at 5 uM” value in experiment [3] (THP-1 cells, 5 uM compound) is “almost complete inhibition”. The “% Inhibition (4 ug/ml)” value in experiment [1] came out at 68%.

The values above are taken from US6831101B2, “Tricyclic rantes receptor ligands” (Chemokine Therapeutics Corporation, priority 2001, dated 2004).
